According to patent US10253052B2, “HBED-bisphosphonates, radiometal conjugates and their use as theranostic agents” (Five Eleven Pharma Inc., priority 2015, dated 2019):
“And” between values parts separate entries of the source, which are not always exact repeats. Identical values can stand only once. “Also recorded” adds a separate entry of the source.

Columns and labels:
[1] = In vivo biodistribution in mice; design: species or system normal CD-1 male mice; settings: iv
Outline: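 Uptake values are % injected dose per gram of wet tissue, from gamma counting of weighed organs with tibia plus femur taken as bone. Tracers (20-30 μCi per animal) were given i.v. to healthy male CD-1 mice (25-30 g), with sacrifice at 2, 30, 60 and 120 min post injection.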

[2] = In vitro binding to hydroxyapatite; settings: 20 mg hydroxyapatite in saline, 10 min at room temperature
Outline: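 Binding is given as the percentage of ^68Ga activity retained by hydroxyapatite, measured by gamma counting of the solid versus the pooled supernatant and saline washes. The tracer (1 μCi) was exposed for 10 min at room temperature to hydroxyapatite pre-soaked 24 h in isotonic saline.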

[3] = tested on: PSMA positive LNCaP cells; assay: Cell uptake in PSMA positive LNCaP cells; assay type: cell-based; settings: 1 hr incubation at 37° C.
PSMA negative PC3 cells = assay: Cell uptake in PSMA negative PC3 cells; assay type: cell-based; settings: 1 hr incubation at 37° C.
[4] = tested on: PSMA expressing LNCaP tumor; assay: Micro-PET imaging in PSMA expressing tumor bearing mouse; assay type: in vivo, nude mice; settings: 500 μCi, 60 min post injection, 15 min scan
Description: (§1) [^68Ga]1a, [^68Ga]BPAMD and [^18F]NaF were tested in normal CD-1 male mice. [^68Ga]1g was tested in PSMA expressing LNCaP tumor bearing nude mice. Mice received 300-500 uCi radiotracer through a tail vein injection. PET imaging was performed under isoflurane anaesthesia (2% isoflurane, 1.5 L/min oxygen). The microPET imaging was performed with a small animal PET (Mosaic by Phillips, USA). During PET measurements, the animals were placed in the prone position. At 60 min post injection of the radiotracer, data acquisition was performed for 15 min.

[5] = Micro-PET imaging in normal mice; assay type: in vivo, normal CD-1 male mice; settings: 15 min scan at 60 min post-injection
Description: as §1

O=C([O-])CN(CCN(CC(=O)[O-])Cc1cc(CCC(=O)NC(P(=O)(O)O)P(=O)(O)O)ccc1[O-])Cc1cc(CCC(=O)NCCCCCC(=O)NCCCC[C@H](NC(=O)N[C@@H](CCC(=O)O)C(=O)O)C(=O)O)ccc1[O-].[68Ga+3] [[^68Ga]1g]
bone to blood ratio ([1]; 2 min): 0.97 | bone to muscle ratio ([1]; 2 min): 3.71 | Biodistribution: Blood ([1]; 2 min post injection): 8.34 ± 0.51 % dose/g | Biodistribution: Bone ([1]; 2 min post injection): 8.13 ± 1.87 % dose/g | Biodistribution: Brain ([1]; 2 min post injection): 0.21 ± 0.03 % dose/g | Biodistribution: Heart ([1]; 2 min post injection): 3.13 ± 0.15 % dose/g | Biodistribution: Kidney ([1]; 2 min post injection): 35.3 ± 3.75 % dose/g | Biodistribution: Liver ([1]; 2 min post injection): 1.73 ± 0.09 % dose/g | Biodistribution: Lung ([1]; 2 min post injection): 4.19 ± 0.50 % dose/g | Biodistribution: Muscle ([1]; 2 min post injection): 2.19 ± 0.11 % dose/g | Biodistribution: Pancreas ([1]; 2 min post injection): 1.69 ± 0.13 % dose/g | Biodistribution: Skin ([1]; 2 min post injection): 2.97 ± 0.14 % dose/g | Biodistribution: Spleen ([1]; 2 min post injection): 2.50 ± 0.41 % dose/g | bone to blood ratio ([1]; 30 min): 29 | bone to muscle ratio ([1]; 30 min): 46 | Biodistribution: Blood ([1]; 30 min (0.5 hr) post injection): 0.56 ± 0.10 % dose/g | Biodistribution: Bone ([1]; 30 min (0.5 hr) post injection): 16.3 ± 0.68 % dose/g | Biodistribution: Brain ([1]; 30 min (0.5 hr) post injection): 0.03 ± 0.00 % dose/g | Biodistribution: Heart ([1]; 30 min (0.5 hr) post injection): 0.45 ± 0.07 % dose/g | Biodistribution: Kidney ([1]; 30 min (0.5 hr) post injection): 77.1 ± 8.24 % dose/g | Biodistribution: Liver ([1]; 30 min (0.5 hr) post injection): 0.27 ± 0.02 % dose/g | Biodistribution: Lung ([1]; 30 min (0.5 hr) post injection): 1.02 ± 0.13 % dose/g | Biodistribution: Muscle ([1]; 30 min (0.5 hr) post injection): 0.35 ± 0.02 % dose/g | Biodistribution: Pancreas ([1]; 30 min (0.5 hr) post injection): 0.69 ± 0.02 % dose/g | Biodistribution: Skin ([1]; 30 min (0.5 hr) post injection): 0.65 ± 0.05 % dose/g | Biodistribution: Spleen ([1]; 30 min (0.5 hr) post injection): 2.09 ± 0.75 % dose/g | bone to blood ratio ([1]; 60 min): 53 | bone to muscle ratio ([1]; 60 min): 74 | Biodistribution: Blood ([1]; 60 min (1 hr) post injection): 0.28 ± 0.05 % dose/g | Biodistribution: Bone ([1]; 60 min (1 hr) post injection): 15.1 ± 1.04 % dose/g | Biodistribution: Brain ([1]; 60 min (1 hr) post injection): 0.03 ± 0.01 % dose/g | Biodistribution: Heart ([1]; 60 min (1 hr) post injection): 0.32 ± 0.03 % dose/g | Biodistribution: Kidney ([1]; 60 min (1 hr) post injection): 78.4 ± 7.11 % dose/g | Biodistribution: Liver ([1]; 60 min (1 hr) post injection): 0.18 ± 0.01 % dose/g | Biodistribution: Lung ([1]; 60 min (1 hr) post injection): 0.58 ± 0.02 % dose/g | Biodistribution: Muscle ([1]; 60 min (1 hr) post injection): 0.21 ± 0.02 % dose/g | Biodistribution: Pancreas ([1]; 60 min (1 hr) post injection): 0.37 ± 0.07 % dose/g | Biodistribution: Skin ([1]; 60 min (1 hr) post injection): 0.42 ± 0.06 % dose/g | Biodistribution: Spleen ([1]; 60 min (1 hr) post injection): 0.91 ± 0.13 % dose/g | bone to blood ratio ([1]; 120 min): 98 | bone to muscle ratio ([1]; 120 min): 98 | Biodistribution: Blood ([1]; 120 min post injection): 0.17 ± 0.03 % dose/g | Biodistribution: Bone ([1]; 120 min post injection): 17.0 ± 0.05 % dose/g | Biodistribution: Brain ([1]; 120 min post injection): 0.02 ± 0.00 % dose/g | Biodistribution: Heart ([1]; 120 min post injection): 0.20 ± 0.03 % dose/g | Biodistribution: Kidney ([1]; 120 min post injection): 70.3 ± 8.29 % dose/g | Biodistribution: Liver ([1]; 120 min post injection): 0.18 ± 0.02 % dose/g | Biodistribution: Lung ([1]; 120 min post injection): 0.47 ± 0.04 % dose/g | Biodistribution: Muscle ([1]; 120 min post injection): 0.17 ± 0.04 % dose/g | Biodistribution: Pancreas ([1]; 120 min post injection): 0.34 ± 0.03 % dose/g | Biodistribution: Skin ([1]; 120 min post injection): 0.29 ± 0.06 % dose/g | Biodistribution: Spleen ([1]; 120 min post injection): 0.87 ± 0.20 % dose/g | Hydroxyapatite Binding (%) [2]: 88.0 ± 10.5% | Cell uptake in PSMA positive LNCaP cells (in words) [3]: high cell uptake and retention only in LNCaP cells; also recorded: excellent uptake | Cell uptake in PSMA negative PC3 cells (in words) (PSMA negative PC3 cells): no uptake | Micro-PET targeting (in words) [4]: targets both bone and PSMA binding sites

[18F-].[Na+] [[^18F]NaF, reference compound]
bone to blood ratio ([1]; 2 min): 1.9 | bone to muscle ratio ([1]; 2 min): 7.2 | Biodistribution: Blood ([1]; 2 min post injection): 5.56 ± 0.37 % dose/g | Biodistribution: Bone ([1]; 2 min post injection): 10.8 ± 0.51 % dose/g | Biodistribution: Brain ([1]; 2 min post injection): 0.22 ± 0.07 % dose/g | Biodistribution: Heart ([1]; 2 min post injection): 2.80 ± 0.24 % dose/g | Biodistribution: Kidney ([1]; 2 min post injection): 10.4 ± 1.22 % dose/g | Biodistribution: Liver ([1]; 2 min post injection): 2.56 ± 0.24 % dose/g | Biodistribution: Lung ([1]; 2 min post injection): 3.37 ± 0.17 % dose/g | Biodistribution: Muscle ([1]; 2 min post injection): 1.50 ± 0.06 % dose/g | Biodistribution: Pancreas ([1]; 2 min post injection): 1.76 ± 0.07 % dose/g | Biodistribution: Skin ([1]; 2 min post injection): 2.35 ± 0.45 % dose/g | Biodistribution: Spleen ([1]; 2 min post injection): 2.33 ± 0.14 % dose/g | bone to blood ratio ([1]; 30 min): 38 | bone to muscle ratio ([1]; 30 min): 73 | Biodistribution: Blood ([1]; 30 min (0.5 hr) post injection): 0.64 ± 0.08 % dose/g | Biodistribution: Bone ([1]; 30 min (0.5 hr) post injection): 24.2 ± 2.71 % dose/g | Biodistribution: Brain ([1]; 30 min (0.5 hr) post injection): 0.10 ± 0.02 % dose/g | Biodistribution: Heart ([1]; 30 min (0.5 hr) post injection): 0.96 ± 0.23 % dose/g | Biodistribution: Kidney ([1]; 30 min (0.5 hr) post injection): 1.70 ± 0.62 % dose/g | Biodistribution: Liver ([1]; 30 min (0.5 hr) post injection): 0.65 ± 0.17 % dose/g | Biodistribution: Lung ([1]; 30 min (0.5 hr) post injection): 0.55 ± 0.11 % dose/g | Biodistribution: Muscle ([1]; 30 min (0.5 hr) post injection): 0.33 ± 0.11 % dose/g | Biodistribution: Pancreas ([1]; 30 min (0.5 hr) post injection): 0.42 ± 0.27 % dose/g | Biodistribution: Skin ([1]; 30 min (0.5 hr) post injection): 0.51 ± 0.11 % dose/g | Biodistribution: Spleen ([1]; 30 min (0.5 hr) post injection): 0.93 ± 0.56 % dose/g | bone to blood ratio ([1]; 60 min): 161 | bone to muscle ratio ([1]; 60 min): 291 and 281 | Biodistribution: Blood ([1]; 60 min (1 hr) post injection): 0.15 ± 0.01 % dose/g | Biodistribution: Bone ([1]; 60 min (1 hr) post injection): 24.6±3.2 % dose/g and 24.6 ± 3.18 % dose/g | Biodistribution: Brain ([1]; 60 min (1 hr) post injection): 0.06 ± 0.01 % dose/g | Biodistribution: Heart ([1]; 60 min (1 hr) post injection): 0.18 ± 0.02 % dose/g | Biodistribution: Kidney ([1]; 60 min (1 hr) post injection): 0.68 ± 0.36 % dose/g | Biodistribution: Liver ([1]; 60 min (1 hr) post injection): 0.13 ± 0.01 % dose/g | Biodistribution: Lung ([1]; 60 min (1 hr) post injection): 0.14 ± 0.01 % dose/g | Biodistribution: Muscle ([1]; 60 min (1 hr) post injection): 0.09 ± 0.02 % dose/g | Biodistribution: Pancreas ([1]; 60 min (1 hr) post injection): 0.07 ± 0.00 % dose/g | Biodistribution: Skin ([1]; 60 min (1 hr) post injection): 0.11 ± 0.02 % dose/g | Biodistribution: Spleen ([1]; 60 min (1 hr) post injection): 0.12 ± 0.02 % dose/g | bone to blood ratio ([1]; 120 min): 760 | bone to muscle ratio ([1]; 120 min): 593 | Biodistribution: Blood ([1]; 120 min post injection): 0.03 ± 0.00 % dose/g | Biodistribution: Bone ([1]; 120 min post injection): 25.2 ± 3.89 % dose/g | Biodistribution: Brain ([1]; 120 min post injection): 0.04 ± 0.00 % dose/g | Biodistribution: Heart ([1]; 120 min post injection): 0.04 ± 0.00 % dose/g | Biodistribution: Kidney ([1]; 120 min post injection): 0.57 ± 0.43 % dose/g | Biodistribution: Liver ([1]; 120 min post injection): 0.03 ± 0.01 % dose/g | Biodistribution: Lung ([1]; 120 min post injection): 0.04 ± 0.01 % dose/g | Biodistribution: Muscle ([1]; 120 min post injection): 0.04 ± 0.04 % dose/g | Biodistribution: Pancreas ([1]; 120 min post injection): 0.02 ± 0.00 % dose/g | Biodistribution: Skin ([1]; 120 min post injection): 0.03 ± 0.00 % dose/g | Biodistribution: Spleen ([1]; 120 min post injection): 0.03 ± 0.01 % dose/g | Hydroxyapatite Binding (%) [2]: 78.4 ± 3.9% | Micro-PET localization (in words) [5]: localized in the spines of mice

O=C(O)CCC(CP(=O)(O)O)C(=O)O (stereo not drawn) [2-PMPA, 2-(phosphonomethyl)pentane-1,5-dioic acid, reference compound]
Blocking of [68Ga]1g cell uptake to PSMA positive LNCaP cells [3]: blocked the cell uptake
